# Measurements: patent EP0906335B1, “EBV TYPE B CTL EPITOPES” (THE COUNCIL OF THE QUEENSLAND INSTITUTE OF MEDICAL RESEARCH, priority 1996, dated 2008)
# System: autologous PHA blasts
# Assay: CTL assay of type B specific culture B5 against overlapping EBNA-6B peptides (epitope mapping)
# Type: cell-based
# Conditions: peptides preincubated with autologous PHA blasts; Fig. 3a, 3b
# Method: Assessment of peptide specific activity.
# The type B specific culture B5 recognised the peptide corresponding to EBNA-6B residues 210-229 (peptide 12 of the EBNA-6B set) when assayed against individual 20-mer overlapping peptides preincubated with autologous PHA blasts (Fig. 3a). […] The corresponding peptide from the type A overlapping sequence was not recognised by this culture, thus confirming the type B specificity of these T cells.
row,Substance,recognition by type B specific culture B5
1,peptide 12: 20-mer overlapping peptide corresponding to EBNA-6B residues 210-229,recognised

# System: HLA
# Assay: not given
# Conditions: Table 4, from the cited reference; cited from earlier work
row,Substance,HLA Restriction
1,TVFYNIPPNIPL,HLA DQ2
2,LPGPQVTAVLLHEES,HLA A11
3,FLRGRAYGL,HLA B8
4,DEPASTEPVHDQLL,HLA A11
5,SVRDRLARL,HLA A2
6,RRRWRRLTV,HLA B27
7,TSLYNLRRGTALA,HLA DR1
8,RLRAEAGVK,HLA A3
9,QPRAPIRPI,HLA B7
10,CLGGLLTMV,HLA A2
11,DTPLIPLTIF,HLA B51/A2
12,RPPIFIRRL,HLA B7
13,RYSIFFDY,HLA 24
14,NPTQAPVIQLVHAVY,HLA A11
15,VSFIEFVGW,HLA B57
16,KEHVIQNAF,HLA B44
17,EENLLDFVRF,HLA B44
18,VEITPYKPTW,HLA B44

# System: autologous PHA-blasts
# Assay: CTL assay of culture A3 against overlapping EBNA-6B peptides (epitope mapping)
# Conditions: peptides on autologous PHA-blasts; Fig. 4a, 4b
row,Substance,recognition by culture A3
1,"peptide 19: 20-mer overlapping peptide of EBNA-6B, residues 280-299",reactive
